Key:
Assay type in all cases: cell-based
[1] = in vitro; settings: human, nasal epithelial cells
Excerpt: Regarding hyaluronic acid, insolubility at concentrations above 0.5% w/v prevented the testing of higher concentrations. As for xylitol, a high in vitro cytotoxicity at concentrations above 0.5% w/v prevented the testing of higher concentrations.

[2] = test system: Human Nasal Epithelial Cells (HNEpC); assay: Re-epithelialization (scratch) assay; settings: 0.5% compound separately (FIG. 2)
Experimental: (§1) In vitro studies were performed to assess the proliferation and re-epithelialization activity of compositions containing hyaluronic acid and xylitol as individual components and in combination. Three independent trials were carried out with 4 replicates per experimental trial.
(§2) Solutions in basal culture medium of hyaluronic acid (HA, White powder,CAS number 9067-32-7, MW: 1000-1400 kDa, Givaudan France SAS xylitol (Xyl,. White crystalline powder, CAS number 87-99-0 Roquette) or combinations of hyaluronic acid and xylitol at different concentrations were tested.
Human Nasal Epithelial Cells (HNEpC) from a primary cell line isolated from normal human nasal mucosa were purchased form PromoCell (ref: C-12620). The cell line was maintained in supplemented culture medium according to the supplier guidelines and was routinely grown as a monolayer in tissue culture grade flasks. When cells exceeded 70% confluence (but less than 90%), they were sub-cultured on new culture flasks. […]
Cells were seeded in both sides of inserts attached on culture wells and were incubated in supplemented medium at 37 °C and 5% CO2. […] The area of the scratch was calculated using ImageJ software. The percentage of scratch closure (re-epithelialization percentage) was calculated relative to the negative control, a condition in which cells were not treated with any product. […]

[3] = test system: Human Nasal Epithelial Cells (HNEpC); assay: Proliferation assay (MTT); settings: Epithelial cell, 24 hours
Experimental: as §1, §2
Human Nasal Epithelial Cells (HNEpC) from a primary cell line isolated from normal human nasal mucosa were purchased form PromoCell (ref: C-12620). The cell line was maintained in supplemented culture medium according to the supplier guidelines and was routinely grown as a monolayer in tissue culture grade flasks. When cells exceeded 70% confluence (but less than 90%), they were sub-cultured on new culture flasks. All the cell cultures were maintained in standard cell culture conditions (37 °C, 5% CO2 and 95% humidity).
MTT, a yellow tetrazole, is reduced to purple formazan by cell metabolic activity. This reduction is proportional to the amount of living cells in the well and, therefore, to cell proliferation over time. Cells cultured in 96-well plates were treated with the test compositions for 24 hours (37 °C, 5% CO2). After 24 hours of incubation, cells were washed with PBS and stained with MTT solution and incubated at 37 °C for 2 hours. At the end of this incubation period, the staining medium was removed and 100 µL of DMSO/well were added to solubilize the colored precipitate. The absorbance was read at 540 nm in the spectrophotometer plate reader. The cell proliferation percentage was calculated relative to the negative control, a condition in which cells were not treated with any product. Cells with treatments and negative control were cultured with basal medium. As positive control, cells were cultured in supplemented medium. The % of cell proliferation was calculated by the following formula: • % proliferation = AbT/AbC x 100 • AbT = absorbance at 540 nm after 24 hours of treatment • AbC = absorbance at 540 nm of the negative control (24 hours of cells growing in basal medium)

For `OC[C@@H](O)[C@H](O)[C@@H](O)CO` [Xyl, xylitol], the MCC [1] was greater than 5000 µg/mL, the “scratch closure after 72 hours of exposure” value [2] was “did not” and the activation at 0.125 % ([3]; 0.125% compound alone, read-out: increase of cell proliferation in relation to negative control) was 0%. The activation at 0.5 % ([3]; 0.5% compound alone, read-out: increase of cell proliferation in relation to negative control) was 0%, the activity at 0.125 % strength ([3]; basal medium, relative to negative control (100%), compound concentration 0.125 %w/v) was 99.9% and the activity at 0.5 % strength ([3]; basal medium, relative to negative control (100%), compound concentration 0.5 %w/v) was 98.2%.

From patent publication EP4364731A1, “COMPOSITION FOR USE IN THE TREATMENT OF DISRUPTED NASAL MUCOSA AND EPITHELIAL BARRIER” (Laboratorios Cinfa, S.A., priority 2022, dated 2024)
